Laboratory results taken from patent publication US20080145858A1, “DETECTION AND IDENTIFICATION OF TOXICANTS BY MEASUREMENT OF GENE […]” (priority 2003, published 2008).
Marks after values point to notes of the source that are not given here.

Test system: Xenopus laevis neurulation stage embryos (stage 15)
Experiment: Xenopus cDNA microarray, differential gene expression after PMA treatment during neurulation (Group II)
Type: in vivo
Settings: PMA, stage 15
Text: Specifically, the method and screen of the present invention function as follows. EST clones produced from Xenopus laevis unfertilized eggs were used in the present study with ˜1,200 EST clones from a 18,500 EST clone set selected for production of a Xenopus cDNA microarray. The Xenopus microarray was used to measure the effect of chemical treatment on Xenopus embryo gene regulation. The chemical treatment was a phorbol ester, PMA. Xenopus eggs were obtained from females induced for ovulation and fertilized in vitro. Control Xenopus laevis embryos were allowed to develop to stage 8 blastula or stage 15 neurula. Treated embryos were exposed to PMA during cleavage stage or during neurulation with end points of blastula (stage 8) or neurula (stage 15). Specifically, PMA 100 ng/ml was added to the incubation media during cleavage stages for evaluation in stage 8 embryo or PMA was added during neural induction for evaluation in stage 15 embryos. RNA extracted from the embryos was used to generate fluorescent cDNA probes for Xenopus microarray analyses to measure differential gene expression with and without the phorbol ester treatment. Analysis was performed using paired RNA samples to compare PMA-treated and untreated embryos: Group I measured the effects of PMA-treatment during the cleavage stage in stage 8 embryos and Group II measured the effects of PMA-treatment during neurulation in stage 15 embryos. Group III measured the change in gene expression between stage 8 and stage 15 embryos.
cDNA fragments were obtained by PCR replication of Xenopus laevis unfertilized egg cDNA inserts, purified, quantitated and loaded onto glass chips by robotics. In addition to the selected ˜1,200 genes, 64 lambda Q gene, an internal control cDNA (Genomic Solutions, Inc., Ann Arbor, Mich.) was loaded on the chip. The insert DNA from ˜1,200 clones were PCR amplified using forward and reverse primers (GF.200 primers, Research Genetics, Huntsville, Ala.). A second PCR was carried out using 1 μl of the primary PCR (20 μl) for template. Excess dNTPs, polymerase and other PCR artifacts were removed from the secondary PCR reactions using Millipore Multiscreen plates (Millipore Corporation, Bedford, Mass.) using the standard protocol. The purity of the PCR products was assessed by electrophoresis and documented using an Alphalmager 1000 Digital Imaging System (Alpha Innotech Corporation, San Leandro, Calif.). The DNA obtained by PCR was quantitated using PicoGreen (Molecular Probes, Eugene, Oreg.). The DNA was denatured and arrayed onto amino-silane coated microscope slides (CMT-GAPS coated slides, Corning, Corning, N.Y.) using a Flexys robotic workstation (Genomic Solutions Inc.). The ˜1,200 PCR products were arrayed in duplicate on each slide and cross-linked. Each gene chip contained duplicate cDNA samples.
Total RNA was prepared from embryos treated in three separate dishes per treatment group that were pooled. Total RNA was isolated from the frog embryos (1,200 embryos for each probe production) using TRIzol extraction (Gibco BRL, Grand Island, N.Y.) and Qiagen RNeasy kits (Qiagen, Valencia, Calif.). The ethanol precipitated RNA was resuspended in RNase-free water, quantitated with RiboGreen (Molecular Probes, Eugene, Oreg.). Total RNA was further purified using oligoTex mRNA maxi kit (Qiagen Co.) with the bound mRNA eluted with minimum volume of elution buffer and precipitated with ethanol. The recovery rate of mRNA by the ethanol precipitation method was ˜70%. Cy3- or Cy5-tagged probes were produced from an mRNA mixture (20 μl) of Xenopus mRNA (5 μg) and lambda Q gene mRNA (3.5 ng) reverse-transcribed with oligo(dT)18-22 primer and dNTPs and the reverse-transcribed cDNA was cross-linked with Cy3 or Cy5 as described in Clontech Atlas™ Glass Fluorescent Labeling kit manual (www.clontech.com). After hydrolysis of the RNA and purification of the probe (Centricon 50, Millipore, Bedford, Mass.), the cDNA in TE buffer was quantitated by absorbance at 260 nm. […]

For `CCCCCCCCCCCCCC(=O)O[C@@H]1[C@@H](C)[C@@]2(O)[C@@H](C=C(CO)C[C@]3(O)C(=O)C(C)=C[C@@H]23)[C@@H]2C(C)(C)[C@]12OC(C)=O` [PMA, phorbol 12-myristate 12-acetate], the “Cy3/Cy5 by Landmarks (0.25)” value (PBX0135G07 mRNA) was 3.95, the “Cy3/Cy5 by all Data Points (0.469)” value (PBX0135G07 mRNA) was 2.11 and the “Normalized by Landmarks (0.25)” value (PBX0135G07 mRNA) was 0.253. The “Normalized by all Data Points (0.469)” value (PBX0135G07 mRNA) was 0.474, the “Ratio of Medians (Cy5/Cy3) First Spot” value (PBX0135G07 mRNA) was 0.98 and the “Ratio of Medians (Cy5/Cy3) Mean” value (PBX0135G07 mRNA) was 1.01 ± 0.03 ^a. The “Ratio of Medians (Cy5/Cy3) Second Spot” value (PBX0135G07 mRNA) was 1.04, the “Cy3/Cy5 by Landmarks (0.25)” value (PBX0135H08 mRNA) was 4.93 and the “Cy3/Cy5 by all Data Points (0.469)” value (PBX0135H08 mRNA) was 2.63. For the same compound, the “Normalized by Landmarks (0.25)” value (PBX0135H08 mRNA) was 0.203, the “Normalized by all Data Points (0.469)” value (PBX0135H08 mRNA) was 0.380 and the “Ratio of Medians (Cy5/Cy3) First Spot” value (PBX0135H08 mRNA) was 0.78. For the same compound, the “Ratio of Medians (Cy5/Cy3) Mean” value (PBX0135H08 mRNA) was 0.81 ± 0.03 ^a, the “Ratio of Medians (Cy5/Cy3) Second Spot” value (PBX0135H08 mRNA) was 0.84 and the “Normalized by Landmarks (0.25)” value (PBX 0136C09 mRNA) was 1.53. The “Normalized by all Data Points (0.469)” value (PBX 0136C09 mRNA) was 2.87, the “Ratio of Medians (Cy5/Cy3) First Spot” value (PBX 0136C09 mRNA) was 4.19 and the “Ratio of Medians (Cy5/Cy3) Mean” value (PBX 0136C09 mRNA) was 6.12 ± 1.93 ^a. The “Ratio of Medians (Cy5/Cy3) Second Spot” value (PBX 0136C09 mRNA) was 8.05, the “Normalized by Landmarks (0.25)” value (PBX 0136C12 mRNA) was 1.51 and the “Normalized by all Data Points (0.469)” value (PBX 0136C12 mRNA) was 2.82. For the same compound, the “Ratio of Medians (Cy5/Cy3) First Spot” value (PBX 0136C12 mRNA) was 5.29, the “Ratio of Medians (Cy5/Cy3) Mean” value (PBX 0136C12 mRNA) was 6.02 ± 0.73 ^a and the “Ratio of Medians (Cy5/Cy3) Second Spot” value (PBX 0136C12 mRNA) was 6.75. The “Normalized by Landmarks (0.25)” value (PBX 0136F03 mRNA) was 1.54, the “Normalized by all Data Points (0.469)” value (PBX 0136F03 mRNA) was 2.90 and the “Ratio of Medians (Cy5/Cy3) First Spot” value (PBX 0136F03 mRNA) was 3.67. The “Ratio of Medians (Cy5/Cy3) Mean” value (PBX 0136F03 mRNA) was 6.18 ± 2.5 ^a, the “Ratio of Medians (Cy5/Cy3) Second Spot” value (PBX 0136F03 mRNA) was 8.68 and the “Normalized by Landmarks (0.25)” value (PBX 0136G06 mRNA) was 1.36. The “Normalized by all Data Points (0.469)” value (PBX 0136G06 mRNA) was 2.54, the “Ratio of Medians (Cy5/Cy3) First Spot” value (PBX 0136G06 mRNA) was 4.95 and the “Ratio of Medians (Cy5/Cy3) Mean” value (PBX 0136G06 mRNA) was 5.42 ± 0.47 ^a. For the same compound, the “Ratio of Medians (Cy5/Cy3) Second Spot” value (PBX 0136G06 mRNA) was 5.89, the “Normalized by Landmarks (0.25)” value (PBX 0136G08 mRNA) was 1.36 and the “Normalized by all Data Points (0.469)” value (PBX 0136G08 mRNA) was 2.54. For the same compound, the “Ratio of Medians (Cy5/Cy3) First Spot” value (PBX 0136G08 mRNA) was 4.48, the “Ratio of Medians (Cy5/Cy3) Mean” value (PBX 0136G08 mRNA) was 5.43 ± 0.94 ^a and the “Ratio of Medians (Cy5/Cy3) Second Spot” value (PBX 0136G08 mRNA) was 6.37. The “Cy3/Cy5 by Landmarks (0.25)” value (PBX0137F04 mRNA) was 3.70, the “Cy3/Cy5 by all Data Points (0.469)” value (PBX0137F04 mRNA) was 1.97 and the “Normalized by Landmarks (0.25)” value (PBX0137F04 mRNA) was 0.270. The “Normalized by all Data Points (0.469)” value (PBX0137F04 mRNA) was 0.507, the “Ratio of Medians (Cy5/Cy3) First Spot” value (PBX0137F04 mRNA) was 0.95 and the “Ratio of Medians (Cy5/Cy3) Mean” value (PBX0137F04 mRNA) was 1.08 ± 0.13 ^a. For the same compound, the “Ratio of Medians (Cy5/Cy3) Second Spot” value (PBX0137F04 mRNA) was 1.21, the “Normalized by Landmarks (0.25)” value (PBX 0138E11 mRNA) was 1.57 and the “Normalized by all Data Points (0.469)” value (PBX 0138E11 mRNA) was 2.95. For the same compound, the “Ratio of Medians (Cy5/Cy3) First Spot” value (PBX 0138E11 mRNA) was 5.02, the “Ratio of Medians (Cy5/Cy3) Mean” value (PBX 0138E11 mRNA) was 6.29 ± 1.27 ^a and the “Ratio of Medians (Cy5/Cy3) Second Spot” value (PBX 0138E11 mRNA) was 7.56. The “Normalized by Landmarks (0.25)” value (PBX 0138H03 mRNA) was 1.44, the “Normalized by all Data Points (0.469)” value (PBX 0138H03 mRNA) was 2.70 and the “Ratio of Medians (Cy5/Cy3) First Spot” value (PBX 0138H03 mRNA) was 6.36. The “Ratio of Medians (Cy5/Cy3) Mean” value (PBX 0138H03 mRNA) was 5.75 ± 0.61 ^a, the “Ratio of Medians (Cy5/Cy3) Second Spot” value (PBX 0138H03 mRNA) was 5.14 and the “Cy3/Cy5 by Landmarks (0.25)” value (PBX0139G06 mRNA) was 3.77. The “Cy3/Cy5 by all Data Points (0.469)” value (PBX0139G06 mRNA) was 2.01, the “Normalized by Landmarks (0.25)” value (PBX0139G06 mRNA) was 0.265 and the “Normalized by all Data Points (0.469)” value (PBX0139G06 mRNA) was 0.497. The “Ratio of Medians (Cy5/Cy3) First Spot” value (PBX0139G06 mRNA) was 1.06.
